{"source": "paper PMC11249626", "about": "“Fluorophore-Labeled Pyrrolones Targeting the Intracellular Allosteric Binding Site of the Chemokine Receptor CCR1” (ACS Pharmacology & Translational Science, 2024)", "target": "T1, CXCR2 (Homo sapiens, UniProt P25025)", "T1 construct": "host or cells: HEK293T, transient", "T1 sequence (P25025 1-360)": "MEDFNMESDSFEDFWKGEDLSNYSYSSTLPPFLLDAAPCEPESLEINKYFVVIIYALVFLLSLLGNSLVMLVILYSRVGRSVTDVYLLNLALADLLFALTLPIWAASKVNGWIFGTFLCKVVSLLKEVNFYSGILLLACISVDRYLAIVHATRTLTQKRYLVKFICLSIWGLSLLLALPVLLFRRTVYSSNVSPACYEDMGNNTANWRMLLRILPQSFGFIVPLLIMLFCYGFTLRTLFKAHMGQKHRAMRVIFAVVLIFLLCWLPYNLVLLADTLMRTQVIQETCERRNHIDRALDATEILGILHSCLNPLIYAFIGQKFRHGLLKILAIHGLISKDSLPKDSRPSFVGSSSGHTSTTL", "assay": "NanoBRET-based assay for binding to the IABS of CXCR2, as previously reported", "conditions": "up to a concentration of 20 μM", "text": "With 6 (Figure 1), a first lead structure for intracellular CCR1 inhibition that features an approximately 20-fold CCR1 over CCR2 selectivity was previously discovered by Ortiz Zacarías et al.([33]) In order to discover new chemotypes for selective CCR1 over CCR2 inhibition, we aimed to apply our novel NanoBRET competition binding assay for CCR1 in combination with our recently published CCR2 competition binding assay based on 7.[47] In our first attempt, we screened a small in-house library enriched with intracellular GPCR ligands and structural analogues thereof. […] Additionally, we tested 23 for binding to the IABS of CCR9 and CXCR2 using our recently reported NanoBRET-based assay platform (Figure 6C).[44],[45] In the course of these studies, we detected no binding of 23 to CCR9 and CXCR2 up to a concentration of 20 μM. Since cell lineage-dependent effects have been observed for CCR1 antagonists,[59] we studied the CCR1 over CCR2 selectivity of 23 by using a previously reported radioligand binding assay with membrane preparations from osteosarcoma (U2OS) cells stably expressing human CCR1 or CCR2.[33] […] In agreement with these previous reports,[33] we observed a reduction in CCR1 over CCR2 selectivity when moving from membrane-based binding assays to cell-based functional assays. […]", "data": [{"smiles": "O=C(C1=C(O)C(=O)N(CCc2ccc(O)cc2)C1c1ccc(F)cc1)c1ccccc1", "note": "(racemic) [compound 23]", "values": [{"measurement": "Binding to the IABS of CXCR2", "value": "no binding"}]}]}
